Laboratory results reported in patent US20190314285A1, “DOSAGE FORMS COMPRISING ABIRATERONE ACETATE” (Janssen Pharmaceutica NV, priority 2018, published 2019).

Tests used:
[1] = biological target: T1, 17,20-lyase (CYP17A1) (Homo sapiens, UniProt P05093); settings: cited from earlier work
T1 sequence (P05093 1-508): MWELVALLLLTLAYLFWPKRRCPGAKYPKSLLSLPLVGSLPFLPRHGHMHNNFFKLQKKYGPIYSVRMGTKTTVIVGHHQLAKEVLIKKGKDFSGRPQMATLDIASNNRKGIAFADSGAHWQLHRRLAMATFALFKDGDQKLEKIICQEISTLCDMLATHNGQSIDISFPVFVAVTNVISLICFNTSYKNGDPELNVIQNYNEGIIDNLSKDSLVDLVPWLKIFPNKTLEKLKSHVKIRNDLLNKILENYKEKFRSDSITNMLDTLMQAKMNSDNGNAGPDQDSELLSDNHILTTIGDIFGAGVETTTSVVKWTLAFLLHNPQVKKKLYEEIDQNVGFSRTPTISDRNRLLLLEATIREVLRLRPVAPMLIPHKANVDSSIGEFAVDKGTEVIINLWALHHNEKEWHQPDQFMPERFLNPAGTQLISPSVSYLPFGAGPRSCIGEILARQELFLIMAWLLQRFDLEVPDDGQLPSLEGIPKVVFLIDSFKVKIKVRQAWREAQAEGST

[2] = tested on: circulating androgens (testosterone, DHT, DHEA, androstenedione); settings: added to castration, relative to castration alone; cited from earlier work
[3] = Plasma concentrations of abiraterone acetate in previous studies; assay type: in vivo
[4] = tested on: mCRPC; settings: cited from earlier work

## C[C@]12CC[C@H](O)CC1=CC[C@@H]1[C@@H]2CC[C@]2(C)C(c3cccnc3)=CC[C@@H]12 [Abiraterone]
[1]
  IC50: 15 nM

## CC(=O)O[C@H]1CC[C@@]2(C)C(=CC[C@@H]3[C@@H]2CC[C@]2(C)C(c4cccnc4)=CC[C@@H]32)C1 [abiraterone acetate, Abiraterone acetate]
[2]
  reduction of DHEA levels: 97-98%
  reduction of DHT levels: 85%
  reduction of androstenedione levels: 77-78%
[3]
  plasma concentrations of abiraterone acetate: below the lower limit of quantitation

## O=C(c1cc(Cc2n[nH]c(=O)c3ccccc23)ccc1F)N1CCN(C(=O)C2CC2)CC1 [olaparib]
[4]; 2 of 33
  biomarker-negative patient tumors with a response: 6%
[4]; 14 of the 16 patients with a response
  responders who were biomarker-positive for anomalies in DNA-repair genes: 88%
[4]; human, in vivo
  patients with ATM aberrations who had a response: 4 of 5
  patients with BRCA-2 loss who had a response: all 7 patients
